Measurements reported in US20100137449A1, “SUBSTITUTED 1,3-CYCLOPENTADIONE MULTI-TARGET PROTEIN KINASE MODULATORS OF CANCER, ANGIOGENESIS AND THE INFLAMMATORY PATHWAYS ASSOCIATED THEREWITH” (METAPROTEOMICS, LLC, priority 2007, published 2010).

Legend:
Test in all cases: KinaseProfiler Assay
FGFR2(h) = FGFR2(h) (Homo sapiens, UniProt P21802)
PKCδ(h) = PKCδ(h) (Homo sapiens, UniProt Q05655)
CDK5/p35(h) = CDK5/p35(h) (Homo sapiens, UniProt Q00535)
TSSK2(h) = target: T1, TSSK2(h) (Homo sapiens, UniProt Q96PF2)
T1 sequence (Q96PF2 1-358): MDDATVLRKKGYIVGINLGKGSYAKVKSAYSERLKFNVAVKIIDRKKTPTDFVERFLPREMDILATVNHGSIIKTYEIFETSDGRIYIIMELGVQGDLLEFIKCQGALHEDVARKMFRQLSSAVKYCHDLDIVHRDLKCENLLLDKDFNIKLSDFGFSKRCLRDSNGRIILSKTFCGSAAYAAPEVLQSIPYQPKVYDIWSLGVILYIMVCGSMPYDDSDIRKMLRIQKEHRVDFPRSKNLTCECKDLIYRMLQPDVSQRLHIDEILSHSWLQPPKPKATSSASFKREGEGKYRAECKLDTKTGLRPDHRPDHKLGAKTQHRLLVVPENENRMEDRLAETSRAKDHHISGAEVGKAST

MARK1(h) = MARK1(h) (Homo sapiens, UniProt Q9P0L2)
MELK(h) = MELK(h) (Homo sapiens, UniProt Q14680)
Chain of MELK(h) (Q14680 whole entry): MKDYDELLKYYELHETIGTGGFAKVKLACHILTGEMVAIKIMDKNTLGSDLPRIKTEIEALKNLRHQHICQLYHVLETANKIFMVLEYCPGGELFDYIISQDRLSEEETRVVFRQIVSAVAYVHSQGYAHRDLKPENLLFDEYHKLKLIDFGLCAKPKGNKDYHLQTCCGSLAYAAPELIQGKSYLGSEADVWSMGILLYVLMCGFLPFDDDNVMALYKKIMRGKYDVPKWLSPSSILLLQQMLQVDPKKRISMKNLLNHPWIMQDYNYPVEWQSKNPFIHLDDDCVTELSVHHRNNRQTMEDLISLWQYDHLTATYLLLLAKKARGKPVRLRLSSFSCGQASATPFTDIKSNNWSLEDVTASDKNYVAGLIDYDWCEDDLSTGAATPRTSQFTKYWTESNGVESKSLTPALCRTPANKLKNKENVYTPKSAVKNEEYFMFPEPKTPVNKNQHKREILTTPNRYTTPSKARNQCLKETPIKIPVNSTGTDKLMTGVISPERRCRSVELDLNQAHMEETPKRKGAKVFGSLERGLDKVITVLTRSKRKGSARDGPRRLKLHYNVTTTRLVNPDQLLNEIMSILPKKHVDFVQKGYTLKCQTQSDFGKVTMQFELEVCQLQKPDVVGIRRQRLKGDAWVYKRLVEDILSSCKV

Rsk2(h) = Rsk2(h) (Homo sapiens, UniProt P51812)
ALK(h) = ALK(h) (Homo sapiens, UniProt Q9UM73)
Chain of ALK(h) (Q9UM73 19-1620): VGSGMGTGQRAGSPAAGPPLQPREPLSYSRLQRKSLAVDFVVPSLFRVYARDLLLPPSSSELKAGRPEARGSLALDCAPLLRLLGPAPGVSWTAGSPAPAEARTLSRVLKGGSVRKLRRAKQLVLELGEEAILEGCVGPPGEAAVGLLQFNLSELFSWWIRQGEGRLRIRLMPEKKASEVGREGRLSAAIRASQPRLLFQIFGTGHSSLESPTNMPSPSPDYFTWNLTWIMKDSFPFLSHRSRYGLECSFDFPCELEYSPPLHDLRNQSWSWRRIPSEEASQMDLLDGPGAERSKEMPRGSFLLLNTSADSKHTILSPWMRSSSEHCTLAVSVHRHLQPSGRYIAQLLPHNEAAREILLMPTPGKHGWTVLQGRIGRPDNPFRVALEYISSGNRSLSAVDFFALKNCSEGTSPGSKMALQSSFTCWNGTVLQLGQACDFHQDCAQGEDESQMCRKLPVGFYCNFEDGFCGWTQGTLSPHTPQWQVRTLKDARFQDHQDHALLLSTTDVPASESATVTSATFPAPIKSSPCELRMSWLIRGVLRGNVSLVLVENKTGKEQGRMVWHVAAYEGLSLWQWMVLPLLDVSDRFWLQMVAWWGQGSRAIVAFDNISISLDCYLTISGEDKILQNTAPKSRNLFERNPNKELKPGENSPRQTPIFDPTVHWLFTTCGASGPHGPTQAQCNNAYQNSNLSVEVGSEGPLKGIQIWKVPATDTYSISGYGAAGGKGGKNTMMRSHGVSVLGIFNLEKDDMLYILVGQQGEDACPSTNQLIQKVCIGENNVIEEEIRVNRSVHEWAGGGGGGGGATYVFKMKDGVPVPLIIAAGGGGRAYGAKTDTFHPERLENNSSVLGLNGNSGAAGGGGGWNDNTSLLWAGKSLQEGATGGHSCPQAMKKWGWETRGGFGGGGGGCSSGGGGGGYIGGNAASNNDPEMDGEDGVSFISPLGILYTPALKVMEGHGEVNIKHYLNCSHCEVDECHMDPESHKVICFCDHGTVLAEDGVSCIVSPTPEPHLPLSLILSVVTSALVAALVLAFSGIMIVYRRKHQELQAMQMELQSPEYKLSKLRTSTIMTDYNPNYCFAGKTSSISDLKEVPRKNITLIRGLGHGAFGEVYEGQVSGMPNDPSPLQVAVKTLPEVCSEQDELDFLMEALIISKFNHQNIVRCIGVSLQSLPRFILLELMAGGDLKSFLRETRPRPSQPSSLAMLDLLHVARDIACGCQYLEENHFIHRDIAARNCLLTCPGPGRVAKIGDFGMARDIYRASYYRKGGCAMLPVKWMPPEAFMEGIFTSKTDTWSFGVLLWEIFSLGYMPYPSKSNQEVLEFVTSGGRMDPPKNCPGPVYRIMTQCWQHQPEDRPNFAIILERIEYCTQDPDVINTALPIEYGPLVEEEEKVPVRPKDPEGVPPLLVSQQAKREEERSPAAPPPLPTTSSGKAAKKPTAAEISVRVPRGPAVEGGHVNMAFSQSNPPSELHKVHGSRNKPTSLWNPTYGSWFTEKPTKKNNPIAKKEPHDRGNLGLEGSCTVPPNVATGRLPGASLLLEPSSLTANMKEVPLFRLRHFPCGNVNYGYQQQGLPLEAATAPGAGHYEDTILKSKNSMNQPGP

SRPK1(h) = SRPK1(h) (Homo sapiens, UniProt Q96SB4)
CDK1/cyclinB(h) = CDK1/cyclinB(h) (Homo sapiens, UniProt P06493)
Chain of CDK1/cyclinB(h) (P06493 whole entry): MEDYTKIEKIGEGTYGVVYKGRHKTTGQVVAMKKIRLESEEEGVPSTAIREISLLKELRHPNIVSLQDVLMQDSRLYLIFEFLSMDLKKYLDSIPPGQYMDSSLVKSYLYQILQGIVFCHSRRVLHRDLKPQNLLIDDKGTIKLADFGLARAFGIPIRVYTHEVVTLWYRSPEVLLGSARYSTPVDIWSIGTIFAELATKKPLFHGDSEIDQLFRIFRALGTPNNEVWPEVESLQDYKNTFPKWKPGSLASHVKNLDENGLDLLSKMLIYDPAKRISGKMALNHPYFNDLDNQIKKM
Chain of CDK1/cyclinB(h) (P14635 whole entry partner): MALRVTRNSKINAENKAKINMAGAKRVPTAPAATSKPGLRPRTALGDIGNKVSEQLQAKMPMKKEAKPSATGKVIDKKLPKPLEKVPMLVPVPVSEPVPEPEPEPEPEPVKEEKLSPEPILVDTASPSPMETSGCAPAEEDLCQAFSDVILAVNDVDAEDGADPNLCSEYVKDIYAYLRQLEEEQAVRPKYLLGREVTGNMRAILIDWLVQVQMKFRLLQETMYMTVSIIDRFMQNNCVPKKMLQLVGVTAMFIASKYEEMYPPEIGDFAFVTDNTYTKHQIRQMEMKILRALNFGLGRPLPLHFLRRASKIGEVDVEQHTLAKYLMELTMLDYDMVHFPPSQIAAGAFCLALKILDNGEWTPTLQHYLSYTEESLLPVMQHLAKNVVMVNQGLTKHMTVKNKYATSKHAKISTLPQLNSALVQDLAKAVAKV

Hck(h) = Hck(h) (Homo sapiens, UniProt P08631)
Chain of Hck(h) (P08631 whole entry): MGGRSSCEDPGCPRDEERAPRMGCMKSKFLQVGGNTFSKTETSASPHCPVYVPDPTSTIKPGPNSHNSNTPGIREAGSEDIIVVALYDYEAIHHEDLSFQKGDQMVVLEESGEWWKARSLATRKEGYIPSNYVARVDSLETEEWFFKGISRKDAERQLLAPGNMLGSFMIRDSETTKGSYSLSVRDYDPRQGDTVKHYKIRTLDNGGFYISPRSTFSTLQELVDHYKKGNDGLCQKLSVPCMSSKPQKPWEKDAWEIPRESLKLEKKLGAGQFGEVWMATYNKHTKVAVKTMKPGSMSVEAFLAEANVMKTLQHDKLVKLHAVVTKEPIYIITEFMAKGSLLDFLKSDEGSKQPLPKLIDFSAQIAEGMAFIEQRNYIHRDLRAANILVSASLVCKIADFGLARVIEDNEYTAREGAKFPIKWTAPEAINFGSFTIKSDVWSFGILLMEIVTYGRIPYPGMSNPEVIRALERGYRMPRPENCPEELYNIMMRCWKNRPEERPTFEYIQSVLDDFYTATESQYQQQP

MSSK1(h) = MSSK1(h) (Homo sapiens, UniProt Q9UPE1)
Chain of MSSK1(h) (Q9UPE1 whole entry): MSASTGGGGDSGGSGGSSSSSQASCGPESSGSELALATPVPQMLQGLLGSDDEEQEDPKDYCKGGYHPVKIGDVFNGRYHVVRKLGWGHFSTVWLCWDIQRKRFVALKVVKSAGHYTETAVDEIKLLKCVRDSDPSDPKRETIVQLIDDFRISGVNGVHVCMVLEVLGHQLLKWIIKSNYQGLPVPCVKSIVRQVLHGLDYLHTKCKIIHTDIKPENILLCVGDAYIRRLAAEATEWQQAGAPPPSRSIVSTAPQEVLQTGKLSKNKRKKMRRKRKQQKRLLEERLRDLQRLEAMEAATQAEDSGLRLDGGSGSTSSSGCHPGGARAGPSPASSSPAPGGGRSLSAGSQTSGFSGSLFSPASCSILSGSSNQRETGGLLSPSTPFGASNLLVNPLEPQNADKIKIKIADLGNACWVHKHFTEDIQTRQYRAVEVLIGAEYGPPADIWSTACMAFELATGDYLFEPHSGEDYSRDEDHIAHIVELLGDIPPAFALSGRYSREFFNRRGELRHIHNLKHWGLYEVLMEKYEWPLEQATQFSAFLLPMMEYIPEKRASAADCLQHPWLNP

SGK2(h) = target: T2, SGK2(h) (Homo sapiens, UniProt Q9HBY8)
T2 sequence (Q9HBY8 1-367): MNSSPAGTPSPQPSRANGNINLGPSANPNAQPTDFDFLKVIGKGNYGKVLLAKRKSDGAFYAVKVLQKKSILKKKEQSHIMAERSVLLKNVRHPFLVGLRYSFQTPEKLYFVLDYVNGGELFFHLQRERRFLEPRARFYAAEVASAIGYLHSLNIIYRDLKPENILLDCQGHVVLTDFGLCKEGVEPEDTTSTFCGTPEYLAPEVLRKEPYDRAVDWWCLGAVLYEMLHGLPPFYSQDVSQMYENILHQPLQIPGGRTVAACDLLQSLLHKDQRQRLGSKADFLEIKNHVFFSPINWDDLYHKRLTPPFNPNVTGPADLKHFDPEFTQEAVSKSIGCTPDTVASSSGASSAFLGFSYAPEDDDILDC

TSSK1(h) = target: T3, TSSK1(h) (Homo sapiens, UniProt Q9BXA7)
T3 sequence (Q9BXA7 1-367): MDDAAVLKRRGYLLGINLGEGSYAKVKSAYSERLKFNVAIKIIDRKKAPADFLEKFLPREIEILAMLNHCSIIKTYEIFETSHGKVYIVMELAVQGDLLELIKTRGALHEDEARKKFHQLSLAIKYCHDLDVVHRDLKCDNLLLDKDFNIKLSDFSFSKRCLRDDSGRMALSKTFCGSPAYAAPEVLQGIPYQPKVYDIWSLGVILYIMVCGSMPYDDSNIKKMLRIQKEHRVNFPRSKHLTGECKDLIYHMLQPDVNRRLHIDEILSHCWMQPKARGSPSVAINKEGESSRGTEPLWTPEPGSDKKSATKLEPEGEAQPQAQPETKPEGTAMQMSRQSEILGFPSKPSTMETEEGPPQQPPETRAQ

Chain of CDK5/p35(h) (Q00535 whole entry): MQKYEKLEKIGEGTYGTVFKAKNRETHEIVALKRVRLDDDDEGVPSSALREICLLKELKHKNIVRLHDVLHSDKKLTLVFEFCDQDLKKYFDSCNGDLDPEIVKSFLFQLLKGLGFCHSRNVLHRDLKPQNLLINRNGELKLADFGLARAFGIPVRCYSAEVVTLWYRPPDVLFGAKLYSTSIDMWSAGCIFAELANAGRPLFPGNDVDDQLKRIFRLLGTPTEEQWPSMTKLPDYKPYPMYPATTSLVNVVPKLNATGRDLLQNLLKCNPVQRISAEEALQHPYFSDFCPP
Chain of CDK5/p35(h) (Q15078 whole entry partner): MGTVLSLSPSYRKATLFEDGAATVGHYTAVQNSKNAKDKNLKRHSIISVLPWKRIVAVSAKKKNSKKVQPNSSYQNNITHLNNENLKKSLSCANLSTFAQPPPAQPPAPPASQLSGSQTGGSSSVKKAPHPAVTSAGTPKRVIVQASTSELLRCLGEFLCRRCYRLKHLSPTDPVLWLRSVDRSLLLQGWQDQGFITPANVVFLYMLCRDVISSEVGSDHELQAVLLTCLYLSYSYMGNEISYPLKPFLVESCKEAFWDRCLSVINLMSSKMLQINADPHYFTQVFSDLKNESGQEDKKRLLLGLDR

CC(C)CCC(=O)[C@]1(O)C(O)=C(C(=O)C(C)C)C(=O)[C@H]1CCC(C)C [TH2, tetrahydroiso-cohumulone]
kinase inhibition (FGFR2(h); 1 μg/ml): 111% of control | kinase inhibition (FGFR2(h); 5 μg/ml): 98% of control | kinase inhibition (FGFR2(h); 25 μg/ml): 102% of control | kinase inhibition (FGFR2(h); 50 μg/ml): 96% of control | kinase inhibition (FGFR2(h); 100 μg/ml): 78% of control | kinase inhibition (PKCδ(h); 1 μg/ml): 111% of control | kinase inhibition (PKCδ(h); 5 μg/ml): 110% of control | kinase inhibition (PKCδ(h); 25 μg/ml): 97% of control | kinase inhibition (PKCδ(h); 50 μg/ml): 92% of control | kinase inhibition (PKCδ(h); 100 μg/ml): 80% of control | kinase inhibition (CDK5/p35(h); 1 μg/ml): 105% of control | kinase inhibition (CDK5/p35(h); 5 μg/ml): 98% of control | kinase inhibition (CDK5/p35(h); 25 μg/ml): 106% of control | kinase inhibition (CDK5/p35(h); 50 μg/ml): 80% of control | kinase inhibition (CDK5/p35(h); 100 μg/ml): 90% of control | kinase inhibition (TSSK2(h); 1 μg/ml): 106% of control | kinase inhibition (TSSK2(h); 5 μg/ml): 99% of control | kinase inhibition (TSSK2(h); 25 μg/ml): 100% of control | kinase inhibition (TSSK2(h); 50 μg/ml): 97% of control | kinase inhibition (TSSK2(h); 100 μg/ml): 87% of control | kinase inhibition (MARK1(h); 1 μg/ml): 109% of control | kinase inhibition (MARK1(h); 5 μg/ml): 110% of control | kinase inhibition (MARK1(h); 25 μg/ml): 97% of control | kinase inhibition (MARK1(h); 50 μg/ml): 90% of control | kinase inhibition (MARK1(h); 100 μg/ml): 63% of control | kinase inhibition (MELK(h); 1 μg/ml): 116% of control | kinase inhibition (MELK(h); 5 μg/ml): 104% of control | kinase inhibition (MELK(h); 25 μg/ml): 102% of control | kinase inhibition (MELK(h); 50 μg/ml): 98% of control | kinase inhibition (MELK(h); 100 μg/ml): 83% of control | kinase inhibition (Rsk2(h); 1 μg/ml): 102% of control | kinase inhibition (Rsk2(h); 5 μg/ml): 100% of control | kinase inhibition (Rsk2(h); 25 μg/ml): 81% of control | kinase inhibition (Rsk2(h); 50 μg/ml): 43% of control | kinase inhibition (Rsk2(h); 100 μg/ml): 32% of control | kinase inhibition (ALK(h); 1 μg/ml): 80% of control | kinase inhibition (ALK(h); 5 μg/ml): 59% of control | kinase inhibition (ALK(h); 25 μg/ml): 21% of control | kinase inhibition (ALK(h); 50 μg/ml): 21% of control | kinase inhibition (ALK(h); 100 μg/ml): 23% of control | kinase inhibition (SRPK1(h); 1 μg/ml): 47% of control | kinase inhibition (SRPK1(h); 5 μg/ml): 89% of control | kinase inhibition (SRPK1(h); 25 μg/ml): 61% of control | kinase inhibition (SRPK1(h); 50 μg/ml): 53% of control | kinase inhibition (SRPK1(h); 100 μg/ml): 45% of control | kinase inhibition (CDK1/cyclinB(h); 1 μg/ml): 111% of control | kinase inhibition (CDK1/cyclinB(h); 5 μg/ml): 111% of control | kinase inhibition (CDK1/cyclinB(h); 25 μg/ml): 90% of control | kinase inhibition (CDK1/cyclinB(h); 50 μg/ml): 86% of control | kinase inhibition (CDK1/cyclinB(h); 100 μg/ml): 74% of control | kinase inhibition (Hck(h); 1 μg/ml): 103% of control | kinase inhibition (Hck(h); 5 μg/ml): 88% of control | kinase inhibition (Hck(h); 25 μg/ml): 76% of control | kinase inhibition (Hck(h); 50 μg/ml): 62% of control | kinase inhibition (Hck(h); 100 μg/ml): 42% of control | kinase inhibition (MSSK1(h); 1 μg/ml): 105% of control | kinase inhibition (MSSK1(h); 5 μg/ml): 84% of control | kinase inhibition (MSSK1(h); 25 μg/ml): 43% of control | kinase inhibition (MSSK1(h); 50 μg/ml): 50% of control | kinase inhibition (MSSK1(h); 100 μg/ml): 39% of control | kinase inhibition (SGK2(h); 1 μg/ml): 133% of control | kinase inhibition (SGK2(h); 5 μg/ml): 116% of control | kinase inhibition (SGK2(h); 25 μg/ml): 112% of control | kinase inhibition (SGK2(h); 50 μg/ml): 121% of control | kinase inhibition (SGK2(h); 100 μg/ml): 69% of control | kinase inhibition (TSSK1(h); 1 μg/ml): 105% of control | kinase inhibition (TSSK1(h); 5 μg/ml): 97% of control | kinase inhibition (TSSK1(h); 25 μg/ml): 96% of control | kinase inhibition (TSSK1(h); 50 μg/ml): 91% of control | kinase inhibition (TSSK1(h); 100 μg/ml): 86% of control
